Measured values as given in patent publication US20090117115A1 (priority 2006, published 2009).

Tests used:
[1] = tested on: gp120 hydrolysis by salivary IgA and serum IgA; assay type: biochemical, human
[2] = target: gp120 of HIV-1 strain ZA009 (HIV-1, strain ZA009)
[3] = target: gp120 of HIV-1 strain SF162 (HIV-1, strain SF162)
[4] = target: gp120 of HIV-1 strain BR004 (HIV-1, strain BR004)

Compound	inhibition of gp120 hydrolysis by serum and salivary IgA [1]	IC80, HIV neutralization (% decrease of p24; PHA-stimulated PBMC hosts) [2]	IC80, HIV neutralization (% decrease of p24; PHA-stimulated PBMC hosts) [3]	IC80, HIV neutralization (% decrease of p24; PHA-stimulated PBMC hosts) [4]
O=C(O)CN(CCN(CC(=O)O)CC(=O)O)CC(=O)O [EDTA]	did not detectably inhibit	–	–	–
c1cnc2c(c1)ccc1cccnc12 [1,10 phenanthroline]	did not detectably inhibit	–	–	–
NC(=O)CI [iodoacetamide]	did not detectably inhibit	–	–	–
pepstatin A	did not detectably inhibit	–	–	–
MAb b12 (antibody)	–	> 20 µg/mL	14.1 µg/mL	> 20 µg/mL
